Earlier results in US12557816B2, “Compositions for controlling a plant disease” (NutriAg Ltd., priority 2017, dated 2026).

Conditions: phosphorous acid: second dissociation; hydrogen phosphite ion: conjugate base

## hydrogen phosphite [hydrogen phosphite (or phosphonate) ion]
  pKa: about 6.7

## OP(O)O [Phosphorous acid, phosphorous acid]
  pKa: about 1.3
